In the supplement of paper PMC10307832:

Key:
Assay in all cases: relative viability (nuclei count vs DMSO), 5 days (fraction); higher = more cells survive
Midostaurin + Lapatinib = compound: CO[C@@H]1[C@H](N(C)C(=O)c2ccccc2)C[C@H]2O[C@]1(C)n1c3ccccc3c3c4c(c5c6ccccc6n2c5c31)C(=O)NC4 [Midostaurin] + CS(=O)(=O)CCNCc1ccc(-c2ccc3ncnc(Nc4ccc(OCc5cccc(F)c5)c(Cl)c4)c3c2)o1 [Lapatinib] (partner 2 µM)
Outline: (§1)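 Lung cancer cell lines in 1536-well plates got either a single drug or a fixed anchor-drug dose together with five library-drug doses (not always all listed) in √10 steps, by pin tool, on the day after seeding. Nuclei were counted after 5 days, and relative viability is the treated-to-vehicle ratio of nuclei counts. Values are medians of duplicate plates.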

Midostaurin + Pictilisib = compound: CO[C@@H]1[C@H](N(C)C(=O)c2ccccc2)C[C@H]2O[C@]1(C)n1c3ccccc3c3c4c(c5c6ccccc6n2c5c31)C(=O)NC4 [Midostaurin] + CS(=O)(=O)N1CCN(Cc2cc3nc(-c4cccc5[nH]ncc45)nc(N4CCOCC4)c3s2)CC1 [Pictilisib] (partner 1 µM)
Outline: as §1

[1] = compound: COc1cc(-c2nn([C@H]3CC[C@H](N4CCN(C(C)=O)CC4)CC3)c3ncnc(N)c23)ccc1NC(=O)c1cc2ccccc2n1C + CS(=O)(=O)CCNCc1ccc(-c2ccc3ncnc(Nc4ccc(OCc5cccc(F)c5)c(Cl)c4)c3c2)o1 [Lapatinib] (partner 2 µM)
Outline: as §1

[2] = compound: COc1cc(-c2nn([C@H]3CC[C@H](N4CCN(C(C)=O)CC4)CC3)c3ncnc(N)c23)ccc1NC(=O)c1cc2ccccc2n1C + Cc1nc(NC(=O)N2CCC[C@H]2C(N)=O)sc1-c1ccnc(C(C)(C)C(F)(F)F)c1 [Alpelisib] (partner 2 µM)
Outline: as §1

[3] = compound: COc1cc(-c2nn([C@H]3CC[C@H](N4CCN(C(C)=O)CC4)CC3)c3ncnc(N)c23)ccc1NC(=O)c1cc2ccccc2n1C + N=C(N)NC(=N)NCCc1ccccc1 [Phenformin] (partner 250 µM)
Outline: as §1

Cell Line	relative viability (Midostaurin + Lapatinib; first compound 0.01 µM)	relative viability (Midostaurin + Lapatinib; first compound 0.03162 µM)	relative viability (Midostaurin + Lapatinib; first compound 0.1 µM)	relative viability (Midostaurin + Lapatinib; first compound 0.3162 µM)	relative viability (Midostaurin + Pictilisib; first compound 0.01 µM)	relative viability (Midostaurin + Pictilisib; first compound 0.03162 µM)	relative viability (Midostaurin + Pictilisib; first compound 0.1 µM)	relative viability (Midostaurin + Pictilisib; first compound 0.3162 µM)	relative viability ([1]; first compound 0.0128 µM)	relative viability ([1]; first compound 0.04048 µM)	relative viability ([1]; first compound 0.128 µM)	relative viability ([1]; first compound 1.28 µM)	relative viability ([2]; first compound 0.0128 µM)	relative viability ([2]; first compound 0.04048 µM)	relative viability ([2]; first compound 0.128 µM)	relative viability ([2]; first compound 1.28 µM)	relative viability ([3]; first compound 0.0128 µM)	relative viability ([3]; first compound 0.04048 µM)	relative viability ([3]; first compound 0.128 µM)	relative viability ([3]; first compound 1.28 µM)
PC-3 [JPC-3]	0.432	0.439	0.488	0.43	0.787	0.623	0.785	0.789	0.444	0.444	0.431	0.462	1.04	1.09	1.04	1.09	0.488	0.474	0.461	0.512
BEN	0.718	0.719	0.777	0.815	0.65	0.584	0.608	0.652	0.588	0.646	0.878	0.401	0.972	1.15	0.865	0.642	0.235	0.272	0.276	0.218
NCI-H1666	0.74	0.617	0.81	0.634	0.406	0.359	0.523	0.516	0.712	0.664	0.581	0.509	0.981	0.864	0.921	0.769	0.568	0.567	0.577	0.537
LC-2-ad	0.989	0.956	0.982	0.855	0.432	0.416	0.497	0.24	0.988	0.817	0.847	0.961	1.01	0.931	0.872	0.699	0.642	0.552	0.593	0.503
SK-LU-1	0.806	1.17	0.823	0.572	0.602	0.676	0.56	0.572	0.913	0.902	0.721	0.681	1.15	0.917	0.821	0.441	0.588	0.425	0.48	0.338
COR-L 105	0.364	0.395	0.357	0.344	0.36	0.453	0.337	0.34	0.3	0.327	0.352	0.31	1.13	1.09	1.08	0.531	0.474	0.58	0.4	0.232
NCI-H1975	0.82	0.893	0.871	0.665	0.277	0.273	0.263	0.248	0.891	0.928	0.837	0.447	0.659	0.757	0.547	0.257	0.393	0.392	0.385	0.254
NCI-H1993	0.831	0.805	0.809	0.79	0.775	0.817	0.898	0.722	0.853	0.811	0.807	0.812	0.76	0.771	0.599	0.569	0.539	0.509	0.486	0.488
RERF-LC-KJ	0.881	0.91	0.907	0.922	0.501	0.51	0.579	0.46	0.911	0.915	0.849	0.857	0.811	0.717	0.555	0.654	0.377	0.448	0.413	0.379
NCI-H23	1.05	1	1	0.949	0.448	0.402	0.439	0.326	1.28	1.03	1.07	1.09	0.63	0.632	0.659	0.476	0.765	0.835	0.805	0.717
HCC-366	1.01	1.04	1.04	1.13	0.167	0.116	0.142	0.137	1.09	0.998	1.07	0.66	0.444	0.374	0.418	0.259	0.566	0.664	0.623	0.658
EMC-BAC-2	0.869	0.828	0.872	0.885	0.559	0.454	0.494	0.475	0.909	0.935	0.842	0.801	0.749	0.743	0.696	0.514	0.563	0.633	0.499	0.422
NCI-H2405	1.03	1.27	–	1.11	0.464	0.516	–	0.379	1.13	0.554	0.955	0.446	0.83	0.419	0.722	0.272	0.408	0.272	0.409	0.28
NCI-H358	0.582	0.391	0.584	0.499	0.437	0.222	0.308	0.432	0.455	0.391	0.335	0.27	0.725	0.747	0.76	0.555	0.329	0.283	0.254	0.187
NCI-H1944	0.783	0.794	0.898	0.977	0.388	0.294	0.372	0.327	0.944	0.95	0.777	0.69	0.827	0.879	0.784	0.506	0.238	0.198	0.184	0.165
